From ChEMBL document CHEMBL1255416, “Genetic and biochemical characterization of TRU-1, the endogenous class C beta-lactamase from Aeromonas enteropelogenes” (Antimicrob Agents Chemother, 2010) come the findings set out here.

The test system of assay [1] is Aeromonas enteropelogenes. The experiment in a line: Antimicrobial activity against Aeromonas enteropelogenes M1 hyperproducing beta-lactamase AmpC. It is filed as functional.
Assay [2] has as its system Aeromonas caviae. The experiment in a line: Activity of Aeromonas caviae Beta-lactamase CAV1.
The subject of assay [3] is Aeromonas caviae. The experiment in a line: Ratio of Kcat Km for Aeromonas caviae Beta-lactamase CAV1.
The test system of assay [4] is Aeromonas enteropelogenes. The experiment in a line: Ratio of Kcat Km for Aeromonas enteropelogenes Beta-lactamase TRU1.
For assay [5], the system named is Escherichia coli. Kind of assay: Antimicrobial activity against Escherichia coli TOP10. Format: functional.
Assay [6] relates to Aeromonas enteropelogenes. Kind of assay: Activity of Aeromonas enteropelogenes Beta-lactamase TRU1.
Assay [7] has as its system Escherichia coli K-12. Kind of assay: Ratio of Kcat Km for Escherichia coli K-12 Beta-lactamase AmpC.
For assay [8], the system named is Escherichia coli K-12. The experiment in a line: Activity of Escherichia coli K-12 Beta-lactamase AmpC.
In assay [9] the test system is Aeromonas enteropelogenes. The experiment in a line: (§1) Inhibition of Aeromonas enteropelogenes Beta-lactamase TRU1.
For assay [10], the system named is Aeromonas enteropelogenes. The experiment in a line: Activity of Aeromonas enteropelogenes Beta-lactamase TRU1 assessed as steady state compound hydrolysis rate.
The subject of assay [11] is Aeromonas enteropelogenes. Kind of assay: Ratio of Kcat Km for Aeromonas enteropelogenes Beta-lactamase TRU1 assessed as steady state compound hydrolysis rate.
Assay [12] relates to Aeromonas enteropelogenes. Kind of assay: Antimicrobial activity against Aeromonas enteropelogenes ATCC 49803 producing endogenous class C beta-lactamase TRU-1. It is filed as functional.
Assay [13] deals with Escherichia coli. The experiment in a line: Antimicrobial activity against Escherichia coli NI540 carrying cloned class C beta-lactamase TRU-1 gene. It is filed as functional.
The nature of assay [14]: as §1.

≈ marks a conversion by molar mass, not a printed value.

As to `CO/N=C(\C(=O)N[C@@H]1C(=O)N2C(C(=O)[O-])=C(C[N+]3(C)CCCC3)CS[C@H]12)c1csc(N)n1`, the MIC in [1] was 2 µg/mL (≈ 4.16 µM); in the assay with Escherichia coli [5] it was 0.03 µg/mL (≈ 0.0624 µM). Besides, the Km in the assay with Aeromonas caviae [2] was 690 µM; in assay [6], 360 µM. In addition, the kcat amounted to 2.5 s⁻¹ in the assay on Aeromonas caviae [2] and 9.4 s⁻¹ in assay [6]. The kcat/Km was found to be 3.6 ×10³ /M/s in the assay with Aeromonas caviae [3] and 2.6 ×10⁴ /M/s in assay [4].

As to `CC1(C)S[C@@H]2[C@H](NC(=O)[C@H](N)c3ccccc3)C(=O)N2[C@H]1C(=O)O`, the kcat/Km in assay [4] came to 8.8 ×10⁵ /M/s; with Escherichia coli K-12 [7], 1.2 ×10⁶ /M/s. The Km was 0.72 µM in assay [6] and 3.5 µM in the assay with Escherichia coli K-12 [8]. Moreover, the kcat in [6] was found to be 0.63 s⁻¹; in the assay on Escherichia coli K-12 [8], 4.2 s⁻¹.

For the compound `CC1=C(C(=O)O)N2C(=O)[C@@H](NC(=O)[C@H](N)c3ccccc3)[C@H]2SC1`, the kcat/Km in [4] was 9.3 ×10⁶ /M/s. Besides, in [6], the Km was determined as 17 µM and the catalytic constant (kcat) was determined as 160 s⁻¹.

`CO/N=C(\C(=O)N[C@@H]1C(=O)N2C(C(=O)O)=C(COC(N)=O)CS[C@H]12)c1ccco1`: the kcat/Km in assay [4] worked out at 3.8 ×10⁶ /M/s; in the assay on Escherichia coli K-12 [7] it was 1 ×10⁶ /M/s. In addition, the kcat in assay [6] was determined as 0.042 s⁻¹; in the assay on Escherichia coli K-12 [8] it was 0.15 s⁻¹. The Michaelis constant (Km) with Escherichia coli K-12 [8] amounted to 0.15 µM.

Regarding `CO/N=C(\C(=O)N[C@@H]1C(=O)N2C(C(=O)O)=C(CSc3nc(=O)c(O)nn3C)CS[C@H]12)c1csc(N)n1`, the Km in assay [9] stood at 6 µM. Besides, the kcat/Km in assay [4] worked out at 7 ×10⁵ /M/s. Besides, the kcat in [6] was 0.042 s⁻¹.

Turning to `Cc1nnc(SCC2=C(C(=O)O)N3C(=O)[C@@H](NC(=O)Cn4cnnn4)[C@H]3SC2)s1`, the kcat/Km in assay [4] turned out to be 4.6 ×10³ /M/s; in assay [11], 3.1 ×10³ /M/s. Moreover, the Michaelis constant (Km) in assay [10] turned out to be 80 µM; in assay [6], 120 µM. Besides, the results for the turnover number (kcat) in [10] and in assay [6] were 0.25 s⁻¹ and 0.55 s⁻¹, respectively.

On to `O=C(Cc1cccs1)N[C@@H]1C(=O)N2C(C(=O)[O-])=C(C[n+]3ccccc3)CS[C@H]12`, for which the Km is 770 µM in the assay on Aeromonas caviae [2], more than 600 µM in [6] and 4 µM in the assay on Escherichia coli K-12 [8]. For the same compound, the catalytic constant (kcat) with Aeromonas caviae [2] is 300 s⁻¹; in assay [6], more than 100 s⁻¹; in the assay on Escherichia coli K-12 [8] it was 38 s⁻¹. Moreover, the kcat/Km in the assay on Aeromonas caviae [3] worked out at 3.9 ×10⁵ /M/s; in assay [4], 1.7 ×10⁵ /M/s; in the assay with Escherichia coli K-12 [7], 9.5 ×10⁶ /M/s.

For `CC1(C)S[C@@H]2[C@H](NC(=O)[C@H](N)c3ccc(O)cc3)C(=O)N2[C@H]1C(=O)O` [AMOXICILLIN], the MIC in assay [1] turned out to be 4 µg/mL (≈ 10.9 µM); in [12], 2 µg/mL (≈ 5.47 µM); against Escherichia coli [5], 2 µg/mL (≈ 5.47 µM); with Escherichia coli [13] it was 32 µg/mL (≈ 87.6 µM).

In assay [1], `C[C@H]1[C@H](NC(=O)/C(=N\OC(C)(C)C(=O)O)c2csc(N)n2)C(=O)N1S(=O)(=O)O` [AZTREONAM] registered an MIC of 0.125 µg/mL (≈ 0.287 µM). Besides, the Km in assay [6] is more than 500 µM.

Consider `CO/N=C(\C(=O)N[C@@H]1C(=O)N2C(C(=O)O)=C(COC(C)=O)CS[C@H]12)c1csc(N)n1` [CEFOTAXIME], for which the MIC in assay [1] worked out at 32 µg/mL (≈ 70.3 µM); in assay [12] it was 0.032 µg/mL (≈ 0.0703 µM); against Escherichia coli [5], 0.06 µg/mL (≈ 0.132 µM); against Escherichia coli [13], 8 µg/mL (≈ 17.6 µM). In addition, the figures for the Michaelis constant (Km) in the assay with Aeromonas caviae [2] and with Escherichia coli K-12 [8] were 0.1 µM and 1.7 µM, respectively. Besides, the kcat in the assay with Aeromonas caviae [2] was found to be 0.2 s⁻¹; in assay [6] it was 0.015 s⁻¹; in the assay with Escherichia coli K-12 [8], 0.17 s⁻¹. The results for the kcat/Km (in the assay on Aeromonas caviae [3]; in assay [4]; with Escherichia coli K-12 [7]) were 2 ×10⁶ /M/s, 1.7 ×10⁷ /M/s and 1 ×10⁵ /M/s, respectively.

`CO[C@@]1(NC(=O)Cc2cccs2)C(=O)N2C(C(=O)O)=C(COC(N)=O)CS[C@@H]21` [CEFOXITIN]: the minimum inhibitory concentration (MIC) was 32 µg/mL (≈ 74.9 µM) in [1], 8 µg/mL (≈ 18.7 µM) in assay [12], 4 µg/mL (≈ 9.36 µM) against Escherichia coli [5] and 128 µg/mL (≈ 299 µM) in the assay on Escherichia coli [13]. The values for the Michaelis-Menten constant (Km) (in the assay on Aeromonas caviae [2]; in assay [9]; in the assay on Escherichia coli K-12 [8]) were 0.4 µM, 0.025 µM and 0.65 µM, respectively. Besides, the kcat in the assay with Aeromonas caviae [2] was found to be 0.5 s⁻¹; in assay [6], 0.88 s⁻¹; in the assay on Escherichia coli K-12 [8], 0.2 s⁻¹. Further, the kcat/Km in the assay on Aeromonas caviae [3] is 1.3 ×10⁶ /M/s; in assay [4], 3.5 ×10⁷ /M/s; in the assay with Escherichia coli K-12 [7] it was 3 ×10⁵ /M/s.

With `CO/N=C(\C(=O)N[C@@H]1C(=O)N2C(C(=O)[O-])=C(C[n+]3cccc4c3CCC4)CS[C@H]12)c1csc(N)n1` [CEFPIROME], the minimal inhibitory concentration (MIC) in assay [1] worked out at 4 µg/mL (≈ 7.77 µM); in assay [12], 0.125 µg/mL (≈ 0.243 µM); in the assay with Escherichia coli [5] it was 0.03 µg/mL (≈ 0.0583 µM); with Escherichia coli [13], 0.5 µg/mL (≈ 0.972 µM). Moreover, the kcat/Km in assay [4] is 2.7 ×10⁵ /M/s. Besides, the Michaelis-Menten constant (Km) in [6] amounted to 85 µM. Moreover, the kcat in assay [6] was found to be 23 s⁻¹.

In the case of `CC(C)(O/N=C(\C(=O)N[C@@H]1C(=O)N2C(C(=O)[O-])=C(C[n+]3ccccc3)CS[C@H]12)c1csc(N)n1)C(=O)O` [CEFTAZIDIME], the minimum inhibitory concentration (MIC) was determined as 16 µg/mL (≈ 29.3 µM) in assay [1], 0.125 µg/mL (≈ 0.229 µM) in assay [12], 0.125 µg/mL (≈ 0.229 µM) with Escherichia coli [5] and 8 µg/mL (≈ 14.6 µM) in the assay with Escherichia coli [13]. For the same compound, the Km in the assay on Aeromonas caviae [2] came to 0.6 µM; in assay [9], 0.12 µM. The kcat in the assay on Aeromonas caviae [2] amounted to 0.2 s⁻¹; in [6], 0.11 s⁻¹. Moreover, the kcat/Km turned out to be 3.3 ×10⁵ /M/s with Aeromonas caviae [3] and 9.2 ×10⁵ /M/s in assay [4].

Consider `CC(=O)OCC1=C(C(=O)O)N2C(=O)[C@@H](NC(=O)Cc3cccs3)[C@H]2SC1` [CEPHALOTHIN], for which the MIC was more than 256 µg/mL in [1], more than 256 µg/mL in assay [12], 4 µg/mL (≈ 10.1 µM) against Escherichia coli [5] and 256 µg/mL (≈ 646 µM) in the assay on Escherichia coli [13]. In addition, the Km with Aeromonas caviae [2] worked out at 500 µM; in [6], 45 µM; in the assay with Escherichia coli K-12 [8] it was 42 µM. The kcat with Aeromonas caviae [2] is 540 s⁻¹; in assay [6], 470 s⁻¹; in the assay on Escherichia coli K-12 [8], 300 s⁻¹. Moreover, the kcat/Km turned out to be 1.1 ×10⁶ /M/s in the assay with Aeromonas caviae [3], 1 ×10⁷ /M/s in [4] and 7 ×10⁶ /M/s with Escherichia coli K-12 [7].

With `C[C@@H](O)[C@H]1C(=O)N2C(C(=O)O)=C(SCCNC=N)C[C@H]12` [IMIPENEM ANHYDROUS], the minimum inhibitory concentration (MIC) in [1] is 0.125 µg/mL (≈ 0.418 µM); in assay [12] it was 0.125 µg/mL (≈ 0.418 µM); with Escherichia coli [13], 0.25 µg/mL (≈ 0.835 µM). The Michaelis constant (Km) in assay [6] is more than 500 µM.

As for `CC1(C)S[C@@H]2[C@H](NC(=O)Cc3ccccc3)C(=O)N2[C@H]1C(=O)O` [PENICILLIN G], the Km with Aeromonas caviae [2] worked out at 8.7 µM; in the assay with Escherichia coli K-12 [8], 4.4 µM. The kcat amounted to 5 s⁻¹ in the assay on Aeromonas caviae [2], 27 s⁻¹ in assay [6] and 45 s⁻¹ in the assay on Escherichia coli K-12 [8]. Moreover, the kcat/Km with Aeromonas caviae [3] was determined as 5.7 ×10⁵ /M/s; in [4] it was 1.4 ×10⁷ /M/s; in the assay with Escherichia coli K-12 [7] it was 1 ×10⁷ /M/s. Further, in [14], the inhibition constant Ki amounted to 2000 nM.

`CCN1CCN(C(=O)N[C@@H](C(=O)N[C@@H]2C(=O)N3[C@@H]2SC(C)(C)[C@@H]3C(=O)O)c2ccccc2)C(=O)C1=O` [PIPERACILLIN]: the MIC in assay [1] turned out to be 4 µg/mL (≈ 7.73 µM); in [12] it was 0.25 µg/mL (≈ 0.483 µM); with Escherichia coli [5], 1 µg/mL (≈ 1.93 µM); in the assay with Escherichia coli [13], 8 µg/mL (≈ 15.5 µM). For the same compound, the inhibitory constant (Ki) in [14] was 200 nM. For the same compound, in assay [4], the kcat/Km was determined as 2.7 ×10⁶ /M/s. Further, the kcat in [6] turned out to be 0.54 s⁻¹.

With `CC1(C)S[C@@H]2[C@H](NC(=O)[C@H](C(=O)O)c3ccsc3)C(=O)N2[C@H]1C(=O)O` [TICARCILLIN], the MIC in [1] was 8 µg/mL (≈ 20.8 µM); in [12], 0.125 µg/mL (≈ 0.325 µM); in the assay on Escherichia coli [5] it was 4 µg/mL (≈ 10.4 µM); in the assay on Escherichia coli [13] it was 64 µg/mL (≈ 166 µM).
